Data from patent US20250154686A1, “COMPOUND LIBRARY” (CHUGAI SEIYAKU KABUSHIKI KAISHA, priority 2021, published 2025).

Target: T1, Bcl-2 protein (Recombinant Human Bcl-2 Protein) (Homo sapiens, UniProt P10415)
T1 construct: purchased Novus Biologicals NBP2-34889
Test: AS-MS evaluation of binding of the Example 4 mixture library (1200 compounds/well) to Bcl-2, ASMS ratio (%)
Conditions: mixture library, value belongs to the MS peak assigned to the compound; for ASMS ratio (%) n = 1: replicate n = 1; for ASMS ratio (%) n = 2: replicate n = 2
Method in brief: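 Binding is read as an ASMS ratio from reverse-phase LC/MS peak data. Samples: 1200 compounds at 20 nM each with 20 μM Bcl-2, 1 h at 23 °C in the dark, then P-2 SEC and organic-solvent extraction; references lacked protein, with and without SEC.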

T1 sequence (P10415 whole entry): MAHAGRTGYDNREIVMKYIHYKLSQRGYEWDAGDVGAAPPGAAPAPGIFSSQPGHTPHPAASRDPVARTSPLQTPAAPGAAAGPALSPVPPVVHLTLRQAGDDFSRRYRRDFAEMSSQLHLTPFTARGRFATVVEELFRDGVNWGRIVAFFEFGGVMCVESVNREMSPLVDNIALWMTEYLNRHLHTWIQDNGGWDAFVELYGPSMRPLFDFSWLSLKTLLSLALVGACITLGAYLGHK

SMILES	ASMS ratio (%) n = 1 [%]	ASMS ratio (%) n = 2 [%]
CCOc1cncc(-c2csc(C(=O)N3CCN(c4ccc(C(=O)NS(=O)(=O)C(C)(C)C)cc4)CC3)c2)c1 [Compound B2L024-01, N-tert-Butylsulfonyl-4-[4-[4-(5-ethoxypyridin-3-yl)thiophene-2-carbonyl]piperazin-1-yl]benzamide]	0.0	0.0
CCOc1cccc(-c2ccc(C(=O)N3CCN(c4ccc(C(=O)NS(=O)(=O)C(C)(C)C)cc4)CC3)cc2C)c1 [Compound B2L025-01, N-tert-Butylsulfonyl-4-[4-[4-(3-ethoxyphenyl)-3-methylbenzoyl]piperazin-1-yl]benzamide]	0.0	0.0
CCOc1cncc(-c2ccc(C(=O)N3CCN(c4ccc(C(=O)NS(=O)(=O)C(C)(C)C)cc4)CC3)cc2C)c1 [Compound B2L026-01, N-tert-Butylsulfonyl-4-[4-[4-(5-ethoxypyridin-3-yl)-3-methylbenzoyl]piperazin-1-yl]benzamide]	0.0	0.0
CCOc1cccc(-c2ccc(C(=O)N3CCN(c4ccc(C(=O)NS(=O)(=O)C(C)(C)C)cc4)CC3)cc2F)c1 [Compound B2L027-01, N-tert-Butylsulfonyl-4-[4-[4-(3-ethoxyphenyl)-3-fluorobenzoyl]piperazin-1-yl]benzamide]	0.0	0.0
CCOc1cncc(-c2ccc(C(=O)N3CCN(c4ccc(C(=O)NS(=O)(=O)C(C)(C)C)cc4)CC3)cc2F)c1 [Compound B2L028-01, N-tert-Butylsulfonyl-4-[4-[4-(5-ethoxypyridin-3-yl)-3-fluorobenzoyl]piperazin-1-yl]benzamide]	0.0	0.0
CCOc1cccc(C#Cc2ccccc2C(=O)N2CCN(c3ccc(C(=O)NS(=O)(=O)C(C)(C)C)cc3)CC2)c1 [Compound B2L029-01, N-tert-Butylsulfonyl-4-[4-[2-[2-(3-ethoxyphenyl)ethynyl]benzoyl]piperazin-1-yl]benzamide]	0.0	–
CCOc1cncc(C#Cc2ccccc2C(=O)N2CCN(c3ccc(C(=O)NS(=O)(=O)C(C)(C)C)cc3)CC2)c1 [Compound B2L030-01, N-tert-Butylsulfonyl-4-[4-[2-[2-(5-ethoxypyridin-3-yl)ethynyl]benzoyl]piperazin-1-yl]benzamide]	0.0	0.0
CCOc1cccc(C#Cc2cncc(C(=O)N3CCN(c4ccc(C(=O)NS(=O)(=O)C(C)(C)C)cc4)CC3)c2)c1 [Compound B2L031-01, N-tert-Butylsulfonyl-4-[4-[5-[2-(3-ethoxyphenyl)ethynyl]pyridine-3-carbonyl]piperazin-1-yl]benzamide]	0.0	0.0
CCOc1cncc(C#Cc2cncc(C(=O)N3CCN(c4ccc(C(=O)NS(=O)(=O)C(C)(C)C)cc4)CC3)c2)c1 [Compound B2L032-01, N-tert-Butylsulfonyl-4-[4-[5-[2-(5-ethoxypyridin-3-yl)ethynyl]pyridine-3-carbonyl]piperazin-1-yl]benzamide]	0.0	−1.0
CCOc1cccc(-c2ccccc2CCC(=O)N2CCN(c3ccc(C(=O)NS(=O)(=O)C(C)(C)C)cc3)CC2)c1 [Compound B2L033-01, N-tert-Butylsulfonyl-4-[4-[3-[2-(3-ethoxyphenyl)phenyl]propanoyl]piperazin-1-yl]benzamide]	0.0	0.0
CCOc1cncc(-c2ccccc2CCC(=O)N2CCN(c3ccc(C(=O)NS(=O)(=O)C(C)(C)C)cc3)CC2)c1 [Compound B2L034-01, N-tert-Butylsulfonyl-4-[4-[3-[2-(5-ethoxypyridin-3-yl)phenyl]propanoyl]piperazin-1-yl]benzamide]	1.6	3.5
CCOc1cccc(-c2ccc(C(=O)N3CCN(c4ccc(C(=O)NS(=O)(=O)C(C)(C)C)cc4)CC3)c3ccccc23)c1 [Compound B2L035-01, N-tert-Butylsulfonyl-4-[4-[4-(3-ethoxyphenyl)naphthalene-1-carbonyl]piperazin-1-yl]benzamide]	0.0	–
CCOc1cncc(-c2ccc(C(=O)N3CCN(c4ccc(C(=O)NS(=O)(=O)C(C)(C)C)cc4)CC3)c3ccccc23)c1 [Compound B2L036-01, N-tert-Butylsulfonyl-4-[4-[4-(5-ethoxypyridin-3-yl)naphthalene-1-carbonyl]piperazin-1-yl]benzamide]	0.0	0.0
CCOc1cccc(-c2cc(C(=O)N3CCN(c4ccc(C(=O)NS(=O)(=O)C(C)(C)C)cc4)CC3)cc(C(C)(C)C)c2)c1 [Compound B2L037-01, 4-[4-[3-tert-Butyl-5-(3-ethoxyphenyl)benzoyl]piperazin-1-yl]-N-tert-butylsulfonylbenzamide]	0.0	0.0
CCOc1cncc(-c2cc(C(=O)N3CCN(c4ccc(C(=O)NS(=O)(=O)C(C)(C)C)cc4)CC3)cc(C(C)(C)C)c2)c1 [Compound B2L038-01, 4-[4-[3-tert-Butyl-5-(5-ethoxypyridin-3-yl)benzoyl]piperazin-1-yl]-N-tert-butylsulfonylbenzamide]	0.0	0.0
CCOc1cccc(-c2cc(C(=O)N3CCN(c4ccc(C(=O)NS(=O)(=O)C(C)(C)C)cc4)CC3)cc(C(F)(F)F)c2)c1 [Compound B2L039-01, N-tert-Butylsulfonyl-4-[4-[3-(3-ethoxyphenyl)-5-(trifluoromethyl)benzoyl]piperazin-1-yl]benzamide]	0.0	0.0
CCOc1cncc(-c2cc(C(=O)N3CCN(c4ccc(C(=O)NS(=O)(=O)C(C)(C)C)cc4)CC3)cc(C(F)(F)F)c2)c1 [Compound B2L040-01, N-tert-Butylsulfonyl-4-[4-[3-(5-ethoxypyridin-3-yl)-5-(trifluoromethyl)benzoyl]piperazin-1-yl]benzamide]	−0.2	1.0
CCOc1cccc(C#Cc2cc(C(=O)N3CCN(c4ccc(C(=O)NS(=O)(=O)C(C)(C)C)cc4)CC3)cc(C(F)(F)F)c2)c1 [Compound B2L041-01, N-tert-Butylsulfonyl-4-[4-[3-[2-(3-ethoxyphenyl)ethynyl]-5-(trifluoromethyl)benzoyl]piperazin-1-yl]benzamide]	0.0	–
CCOc1cncc(C#Cc2cc(C(=O)N3CCN(c4ccc(C(=O)NS(=O)(=O)C(C)(C)C)cc4)CC3)cc(C(F)(F)F)c2)c1 [Compound B2L042-01, N-tert-Butylsulfonyl-4-[4-[3-[2-(5-ethoxypyridin-3-yl)ethynyl]-5-(trifluoromethyl)benzoyl]piperazin-1-yl]benzamide]	0.0	0.0
CCOc1cccc(-c2cnn(-c3cc(C(=O)N4CCN(c5ccc(C(=O)NS(=O)(=O)C(C)(C)C)cc5)CC4)cc(C(F)(F)F)c3)c2)c1 [Compound B2L043-01, N-tert-Butylsulfonyl-4-[4-[3-[4-(3-ethoxyphenyl)pyrazol-1-yl]-5-(trifluoromethyl)benzoyl]piperazin-1-yl]benzamide]	0.0	0.0
